TGI data for eleven molecules are collected here from PubChem BioAssay (NCI).

Molecules are shown by their SMILES.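 Each compound was tested at five concentrations against cells in 96-well plates for 48 hours. TGI is the concentration that stops growth completely.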

Some test systems named below: RPMI-8226 leukemia; CCRF-CEM leukemia; MALME-3M melanoma; A498 renal; SNB-19 CNS; HOP-92 NSCLC; SK-OV-3 ovarian; SF-539 CNS; K-562 leukemia; SK-MEL-5 melanoma; RXF 393 renal; T-47D breast.
Test in all cases: NCI-60 cell line screen, 48 h

As for `O=C(Nc1nc(C23CC4CC(CC(C4)C2)C3)cs1)c1cc2cc(Br)cc(Br)c2oc1=O`, the TGI with RPMI-8226 leukemia, with CCRF-CEM leukemia, in the test with MALME-3M melanoma, in the test on A498 renal, with SNB-19 CNS and in the test with HOP-92 NSCLC was above 100 µM throughout. Further, the TGI in the test on SK-OV-3 ovarian, in the test on SF-539 CNS, in the test on K-562 leukemia, in the test with SK-MEL-5 melanoma, with RXF 393 renal and in the test with T-47D breast was above 100 µM throughout.

As to `Cc1ccc(S(=O)(=O)NNC(=S)Nc2cccc3ccccc23)cc1`, the TGI in the test on RPMI-8226 leukemia was above 100 µM; in the test with CCRF-CEM leukemia it was above 100 µM; with MALME-3M melanoma it was above 100 µM; in the test with A498 renal, 99.5 µM; in the test on SNB-19 CNS, above 100 µM; in the test with HOP-92 NSCLC, 86 µM. The TGI with SK-OV-3 ovarian is above 100 µM; with SF-539 CNS, above 100 µM; with K-562 leukemia, above 100 µM; in the test on SK-MEL-5 melanoma it was 33.1 µM; with RXF 393 renal, above 100 µM; in the test with T-47D breast, above 100 µM.

Regarding `CN(C)CCNc1ccc2c(=O)n(CCN(C)C)c(=O)n3c4ccc(N)cc4c(=O)c1c23`, the TGI in the test on CCRF-CEM leukemia is 0.16 µM; in the test on MALME-3M melanoma it was 0.352 µM; in the test with A498 renal, 2.37 µM; with SNB-19 CNS, 0.788 µM; in the test on HOP-92 NSCLC, 0.87 µM; in the test with SK-OV-3 ovarian, 2.7 µM. Besides, the TGI with SF-539 CNS worked out at 0.482 µM; in the test on K-562 leukemia, 0.0358 µM; in the test on SK-MEL-5 melanoma, 1.37 µM; in the test with RXF 393 renal, 0.263 µM; in the test with T-47D breast it was 4.64 µM.

As for `O=C1/C(=C\c2cccc(Oc3ccccc3)c2)SC(c2ccccc2)N1c1ccc(Cl)cc1` (stereo not drawn), the TGI is 41.9 µM in the test with RPMI-8226 leukemia; above 63.6 µM in the test on CCRF-CEM leukemia; above 100 µM with MALME-3M melanoma; above 100 µM with A498 renal; above 100 µM in the test with SNB-19 CNS; above 100 µM in the test on HOP-92 NSCLC. For the same molecule, the TGI in the test on SK-OV-3 ovarian is above 100 µM; in the test with SF-539 CNS, 52.6 µM; in the test on K-562 leukemia, above 90.8 µM; in the test with SK-MEL-5 melanoma, above 41.7 µM; in the test on RXF 393 renal, above 100 µM; with T-47D breast, above 100 µM.

As to `CCN(CC)CCS(=O)c1c2cc(OC)ccc2nc2ccc(OC)cc12` (stereo not drawn), the TGI is 7.11 µM in the test on RPMI-8226 leukemia; above 25.6 µM with CCRF-CEM leukemia; 2.51 µM in the test on MALME-3M melanoma; 33.1 µM in the test with A498 renal; 72 µM in the test on SNB-19 CNS; above 24.3 µM with HOP-92 NSCLC. In addition, the TGI in the test on SK-OV-3 ovarian was 40.9 µM; in the test with SF-539 CNS it was 6 µM; in the test on K-562 leukemia it was above 25.7 µM; in the test on SK-MEL-5 melanoma, 32.3 µM; in the test with RXF 393 renal it was 24.6 µM; with T-47D breast, 4.04 µM.

For the molecule `O=C(O)CN1CCN(CC(=O)O)CCN(CC(=O)O)CCN(CC(=O)O)CC1`, the TGI with RPMI-8226 leukemia, in the test on CCRF-CEM leukemia, in the test on A498 renal, in the test on SNB-19 CNS, with HOP-92 NSCLC and with SF-539 CNS was above 100 µM in each case. Besides, the TGI with K-562 leukemia, in the test on SK-MEL-5 melanoma, in the test on RXF 393 renal and with T-47D breast was above 100 µM in each case.

As to `COc1ccc(OC)c2nc3c(C(=O)NCCN(C)C)cccc3nc12`, the TGI in the test with RPMI-8226 leukemia is above 24.2 µM; in the test with CCRF-CEM leukemia it was 11 µM; in the test with MALME-3M melanoma it was 27.3 µM; with A498 renal, 29.4 µM; in the test with SNB-19 CNS it was above 100 µM; in the test on HOP-92 NSCLC, 50.2 µM. The TGI in the test with SF-539 CNS was 20 µM; in the test with K-562 leukemia it was 23.2 µM; in the test with SK-MEL-5 melanoma, 14.1 µM; in the test on RXF 393 renal, 23.2 µM; with T-47D breast, above 100 µM.

On to `[N-]=[N+]=Nc1ccc2c(c1)Sc1ccccc1N2CCCCCl`, for which the TGI with RPMI-8226 leukemia, in the test with CCRF-CEM leukemia, with MALME-3M melanoma, in the test with A498 renal, with SNB-19 CNS and with HOP-92 NSCLC was above 100 µM each time. Further, the TGI with SK-OV-3 ovarian is above 100 µM; with SF-539 CNS, above 100 µM; in the test with K-562 leukemia, above 100 µM; in the test with SK-MEL-5 melanoma it was 59.8 µM; with RXF 393 renal, above 100 µM; in the test on T-47D breast, above 100 µM.

Regarding `CC1=C(OC2OC(CO)C(O)C(O)C2O)C(=O)C[C@H]2C1=CC[C@@H]1[C@@]2(C)C(=O)C[C@]2(C)[C@@H]([C@@](C)(O)C(=O)CCC(C)(C)O)[C@H](O)C[C@@]12C` (stereo partly drawn), the TGI in the test with CCRF-CEM leukemia, in the test with MALME-3M melanoma, in the test on A498 renal, in the test with SNB-19 CNS, with HOP-92 NSCLC and in the test on SK-OV-3 ovarian was above 100 µM throughout. Further, the TGI in the test on SF-539 CNS, in the test on K-562 leukemia, in the test with SK-MEL-5 melanoma, with RXF 393 renal and in the test on T-47D breast was above 100 µM each time.

For the molecule `CN(C)CCO/N=C1/C=C2CC[C@H]3[C@@H]4CC[C@H](O)[C@@]4(C)CC[C@@H]3[C@@]2(C)CC1`, the TGI in the test on RPMI-8226 leukemia was above 74.9 µM; with CCRF-CEM leukemia it was above 21.6 µM; in the test with A498 renal, 33.7 µM; with SNB-19 CNS, above 100 µM; in the test on HOP-92 NSCLC it was 23 µM; in the test on SK-OV-3 ovarian it was 44.4 µM. The TGI in the test with SF-539 CNS was 13.2 µM; with K-562 leukemia it was 56.8 µM; in the test on SK-MEL-5 melanoma, 34.3 µM; in the test with RXF 393 renal it was 27.7 µM; with T-47D breast, 97.9 µM.

Consider `O=c1cc(-c2cccc(OC(F)(F)F)c2)[nH]c2cc3c(cc12)OCO3`, for which the TGI in the test on RPMI-8226 leukemia was 0.271 µM; in the test with MALME-3M melanoma, above 100 µM; in the test on A498 renal it was 7.75 µM; with SNB-19 CNS, above 100 µM; in the test with HOP-92 NSCLC, above 73.6 µM; in the test with SF-539 CNS it was 0.204 µM. Besides, the figures for the TGI in the test with SK-MEL-5 melanoma, in the test on RXF 393 renal and in the test on T-47D breast were 0.336 µM, above 89.4 µM and above 100 µM, respectively.
